# Legend:
# Cyperus iria = test: Preemergence weed control under flooded paddy conditions, CYPIR (Rice Flatsedge); type: in vivo; conditions: flooded paddy
# [1] = tested on: Oryza sativa, (L.) Tebonnet; test: Rice tolerance to post-transplant applications under flooded paddy conditions (Example 187), ORYSAT (Rice, Tebonnet)
# Sagittaria pygmaea, L. = test: Preemergence weed control under flooded paddy conditions, SAGPY (Arrowhead (Pygmaea)); type: in vivo; conditions: flooded paddy
# [2] = tested on: Monochoria vaginalis, Presl.; test: Preemergence weed control under flooded paddy conditions, MOOVA (Monochoria); type: in vivo; conditions: flooded paddy
# [3] = tested on: Cyperus serotinus, Rottb.; test: Preemergence weed control under flooded paddy conditions, CYPSE (Flatsedge); type: in vivo
# [4] = tested on: Echinochloa oryzoides (Ard.) Fritsch.; test: Preemergence weed control under flooded paddy conditions, ECHORC (Watergrass (Calif.)); type: in vivo; conditions: flooded paddy
# [5] = Rate 0.0320 kg/ha, preemergence weeds, rated three to four weeks after treatment
# [6] = Rate 0.0620 kg/ha, preemergence weeds, rated three to four weeks after treatment
# [7] = Rate 0.1250 kg/ha, preemergence weeds, rated three to four weeks after treatment
# [8] = Rate 0.2500 kg/ha, preemergence weeds, rated three to four weeks after treatment
# [9] = Rate 0.0320 kg/ha, rated three to four weeks after treatment
# [10] = Rate 0.0620 kg/ha, rated three to four weeks after treatment
# [11] = Rate 0.1250 kg/ha, rated three to four weeks after treatment
# [12] = Rate 0.2500 kg/ha, rated three to four weeks after treatment
# [13] = Rate 0.0320 kg/ha, preemergence, rated three to four weeks after treatment
# [14] = Rate 0.0620 kg/ha, preemergence, rated three to four weeks after treatment
# [15] = Rate 0.1250 kg/ha, preemergence, rated three to four weeks after treatment
# [16] = Rate 0.2500 kg/ha, preemergence, rated three to four weeks after treatment
# [17] = Rate 0.0320 kg/ha, preemergence, rated 3-4 weeks after treatment
# [18] = Rate 0.0620 kg/ha, preemergence, rated 3-4 weeks after treatment
# [19] = Rate 0.1250 kg/ha, preemergence, rated 3-4 weeks after treatment
# [20] = Rate 0.2500 kg/ha, preemergence, rated 3-4 weeks after treatment
# [21] = Rate 0.5000 kg/ha, preemergence, rated 3-4 weeks after treatment
# Note: meaning of each grade not given here.
smiles,measurement,setting,value
"C[C@H](Br)[C@H](Br)c1nsc2ccc(-n3c(=O)cc(C(F)(F)F)n(C)c3=O)cc12 [Example 302, 2,4(1H,3H)-Pyrimidinedione, 3-[3-(1,2-dibromopropyl)-1,2-benzisothiazol-5-yl]-1-methyl-6-(trifluoromethyl)-, (1R,2S)-]","herbicidal effect rating, CYPIR",Cyperus iria; [5],8.0
same,"herbicidal effect rating, CYPIR",Cyperus iria; [6],8.0
same,"herbicidal effect rating, CYPIR",Cyperus iria; [7],8.5
same,"herbicidal effect rating, CYPIR",Cyperus iria; [8],8.5
same,herbicidal effect rating ORYSAT,[1]; [9],1.0
same,herbicidal effect rating ORYSAT,[1]; [10],4.5
same,herbicidal effect rating ORYSAT,[1]; [11],7.0
same,herbicidal effect rating ORYSAT,[1]; [12],8.0
same,"herbicidal effect rating, SAGPY","Sagittaria pygmaea, L.; [5]",0.0
same,"herbicidal effect rating, SAGPY","Sagittaria pygmaea, L.; [6]",0.0
same,"herbicidal effect rating, SAGPY","Sagittaria pygmaea, L.; [7]",9.0
same,"herbicidal effect rating, SAGPY","Sagittaria pygmaea, L.; [8]",9.0
same,"herbicidal effect rating, MOOVA",[2]; [5],7.0
same,"herbicidal effect rating, MOOVA",[2]; [6],7.0
same,"herbicidal effect rating, MOOVA",[2]; [7],9.0
same,"herbicidal effect rating, MOOVA",[2]; [8],9.0
same,"herbicidal effect rating, CYPSE",[3]; [5],4.5
same,"herbicidal effect rating, CYPSE",[3]; [6],4.5
same,"herbicidal effect rating, CYPSE",[3]; [7],4.5
same,"herbicidal effect rating, CYPSE",[3]; [8],6.0
same,"herbicidal effect rating, ECHORC",[4]; [5],4.0
same,"herbicidal effect rating, ECHORC",[4]; [6],5.0
same,"herbicidal effect rating, ECHORC",[4]; [7],8.0
same,"herbicidal effect rating, ECHORC",[4]; [8],8.5
"CONC(=O)COc1ccc(C)cc1-c1nsc2ccc(-n3c(=O)cc(C(F)(F)F)n(C)c3=O)cc12 [Example 316, Acetamide, 2-{{2-{5-[3,6-dihydro-3-methyl-2,6-dioxo-4-(trifluoromethyl)-1(2H)-pyrimidinyl]-1,2-benzisothiazol-3-yl}-p-tolyl}oxy}-N-methoxy-]","herbicidal effect rating, CYPIR",Cyperus iria; [5],8.5
same,"herbicidal effect rating, CYPIR",Cyperus iria; [6],7.5
same,"herbicidal effect rating, CYPIR",Cyperus iria; [7],7.5
same,"herbicidal effect rating, CYPIR",Cyperus iria; [8],6.0
same,herbicidal effect rating ORYSAT,[1]; [9],4.5
same,herbicidal effect rating ORYSAT,[1]; [10],4.0
same,herbicidal effect rating ORYSAT,[1]; [11],4.5
same,herbicidal effect rating ORYSAT,[1]; [12],4.0
same,"herbicidal effect rating, SAGPY","Sagittaria pygmaea, L.; [5]",0.0
same,"herbicidal effect rating, SAGPY","Sagittaria pygmaea, L.; [6]",3.0
same,"herbicidal effect rating, SAGPY","Sagittaria pygmaea, L.; [7]",1.0
same,"herbicidal effect rating, SAGPY","Sagittaria pygmaea, L.; [8]",3.0
same,"herbicidal effect rating, MOOVA",[2]; [5],8.0
same,"herbicidal effect rating, MOOVA",[2]; [6],9.0
same,"herbicidal effect rating, MOOVA",[2]; [7],9.0
same,"herbicidal effect rating, MOOVA",[2]; [8],9.0
same,"herbicidal effect rating, CYPSE",[3]; [5],1.0
same,"herbicidal effect rating, CYPSE",[3]; [6],4.5
same,"herbicidal effect rating, CYPSE",[3]; [7],4.5
same,"herbicidal effect rating, CYPSE",[3]; [8],0.0
same,"herbicidal effect rating, ECHORC",[4]; [5],5.5
same,"herbicidal effect rating, ECHORC",[4]; [6],9.0
same,"herbicidal effect rating, ECHORC",[4]; [7],9.0
same,"herbicidal effect rating, ECHORC",[4]; [8],9.0
"Cn1c(C(F)(F)F)cc(=O)n(-c2ccc3snc(C(C#N)=Cc4cc5ccccc5[nH]4)c3c2)c1=O [Example 601, 1,2-Benzisothiazole-3-acetonitrile, 5-[3,6-dihydro-3-methyl-2,6-dioxo-4-(trifluoromethyl)-1(2H)-pyrimidinyl]-alpha-(indol-2-ylmethylene)-]","herbicidal effect rating, CYPIR",Cyperus iria; [13],0.0
same,"herbicidal effect rating, CYPIR",Cyperus iria; [14],0.0
same,"herbicidal effect rating, CYPIR",Cyperus iria; [15],4.0
same,"herbicidal effect rating, CYPIR",Cyperus iria; [16],4.0
same,herbicidal effect rating ORYSAT,[1]; [9],4.0
same,herbicidal effect rating ORYSAT,[1]; [10],5.0
same,herbicidal effect rating ORYSAT,[1]; [11],6.0
same,herbicidal effect rating ORYSAT,[1]; [12],7.0
same,"herbicidal effect rating, SAGPY","Sagittaria pygmaea, L.; [13]",0.0
same,"herbicidal effect rating, SAGPY","Sagittaria pygmaea, L.; [14]",0.0
same,"herbicidal effect rating, SAGPY","Sagittaria pygmaea, L.; [15]",0.0
same,"herbicidal effect rating, SAGPY","Sagittaria pygmaea, L.; [16]",0.0
same,"herbicidal effect rating, MOOVA",[2]; [13],6.0
same,"herbicidal effect rating, MOOVA",[2]; [14],7.0
same,"herbicidal effect rating, MOOVA",[2]; [15],9.0
same,"herbicidal effect rating, MOOVA",[2]; [16],9.0
same,"herbicidal effect rating, CYPSE",[3]; [13],0.0
same,"herbicidal effect rating, CYPSE",[3]; [14],0.0
same,"herbicidal effect rating, CYPSE",[3]; [15],0.0
same,"herbicidal effect rating, CYPSE",[3]; [16],3.0
same,"herbicidal effect rating, ECHORC",[4]; [13],0.0
same,"herbicidal effect rating, ECHORC",[4]; [14],0.0
same,"herbicidal effect rating, ECHORC",[4]; [15],2.0
same,"herbicidal effect rating, ECHORC",[4]; [16],6.0
"C=CS(=O)(=O)NC(=O)COc1ccc(C)cc1-c1nsc2ccc(-n3c(=O)cc(C(F)(F)F)n(C)c3=O)cc12 [Example 553, Acetamide, 2-{{2-{5-[3,6-dihydro-3-methyl-2,6-dioxo-4-(trifluoromethyl)-1(2H)-pyrimidinyl]-1,2-benzisothiazol-3-yl}-p-tolyl}oxy}-N-(vinylsulfonyl)-]","herbicidal effect rating, CYPIR",Cyperus iria; [17],2.0
same,"herbicidal effect rating, CYPIR",Cyperus iria; [18],6.0
same,"herbicidal effect rating, CYPIR",Cyperus iria; [19],7.0
same,"herbicidal effect rating, CYPIR",Cyperus iria; [20],9.0
same,"herbicidal effect rating, CYPIR",Cyperus iria; [21],4.0
same,herbicidal effect rating ORYSAT,"[1]; Rate 0.0320 kg/ha, rated 3-4 weeks after treatment",3.0
same,herbicidal effect rating ORYSAT,"[1]; Rate 0.0620 kg/ha, rated 3-4 weeks after treatment",4.0
same,herbicidal effect rating ORYSAT,"[1]; Rate 0.1250 kg/ha, rated 3-4 weeks after treatment",4.0
same,herbicidal effect rating ORYSAT,"[1]; Rate 0.2500 kg/ha, rated 3-4 weeks after treatment",6.0
same,herbicidal effect rating ORYSAT,"[1]; Rate 0.5000 kg/ha, rated 3-4 weeks after treatment",4.0
same,"herbicidal effect rating, SAGPY","Sagittaria pygmaea, L.; [17]",0.0
same,"herbicidal effect rating, SAGPY","Sagittaria pygmaea, L.; [18]",0.0
same,"herbicidal effect rating, SAGPY","Sagittaria pygmaea, L.; [19]",0.0
same,"herbicidal effect rating, SAGPY","Sagittaria pygmaea, L.; [20]",0.0
same,"herbicidal effect rating, SAGPY","Sagittaria pygmaea, L.; [21]",0.0
same,"herbicidal effect rating, MOOVA",[2]; [17],7.0
same,"herbicidal effect rating, MOOVA",[2]; [18],9.0
same,"herbicidal effect rating, MOOVA",[2]; [19],9.0
same,"herbicidal effect rating, MOOVA",[2]; [20],9.0
same,"herbicidal effect rating, MOOVA",[2]; [21],9.0
same,"herbicidal effect rating, CYPSE",[3]; [17],0.0
same,"herbicidal effect rating, CYPSE",[3]; [18],0.0
same,"herbicidal effect rating, CYPSE",[3]; [20],2.0
same,"herbicidal effect rating, CYPSE",[3]; [21],9.0
same,"herbicidal effect rating, ECHORC",[4]; [17],1.3
same,"herbicidal effect rating, ECHORC",[4]; [18],2.1
same,"herbicidal effect rating, ECHORC",[4]; [19],6.4
same,"herbicidal effect rating, ECHORC",[4]; [20],9.0
same,"herbicidal effect rating, ECHORC",[4]; [21],7.0

# Source: patent publication EP0908457B1, “3-(1,2-benzisothiazol- and isoxazol-5-Y1)-2,4(1H,3H)-pyrimidinedione or thione and 3-(1,2-benzisothiazol- and isoxazol-5-y1)-4(3H)-pyrimidinone or thione herbicidal agents” (BASF AKTIENGESELLSCHAFT, priority 1997, dated 1999)
